The nature of data set [1]: Dynamic Vapor Sorption (DVS) with XRPD before and after. Format: physicochemical. The protocol: Samples were analyzed using an Aquadyne DVS-2 gravimetric water sorption analyzer. The relative humidity was adjusted between 2-95% and the weight of the sample was continuously monitored and recorded with respect to the relative humidity and time.
The same material was subjected under the Dynamic Vapor Sorption (DVS, FIGS. 3 and 4).
The purity of the sample was also verified by ^1H-NMR. […] The amorphous salt was also studied by DVS. During Desorption 1, (from 50 to 0% RH), a weight loss of around 3% was observed whilst, during Sorption 1 (from 0 to 95% RH), a weight gain of 10%. Desorption 2 indicates a weight loss of 3% was observed and during Sorption 2 (from 0 to 95% RH) the weight loss was continued to additional 1%. In the final stage, Desorption 3 (from 95 to 50% RH), around 1% weight loss was observed (see FIG. 17). The amorphous Compound 1.HCl was analyzed by XRPD and optical microscopy post-DVS experiment.

A short description of data set [2]: Relative stability of the forms: competitive slurries of Pattern A and amorphous form. The following applies: Pattern A + amorphous form in TBME, IPA and THF:H2O (95:5), RT and 45° C. It is filed as physicochemical.
Data set [3] in a line: Solubility of Compound 1.HCl measured gravimetrically in solvents/solvent mixtures. It is filed as physicochemical. The following applies: thermodynamic from solid, slurried 48 h, gravimetric. The protocol:
Solubility of Compound 1.HCl was measured gravimetrically in 12 different solvents and solvent mixtures at 15 and 45° C. About 90 mg of the compound was dispensed in 1 mL of the solvent/solvent mixture and slurried for 48 h. The vials were centrifuged. The supernatant was collected and left for slow evaporation under vacuum at 45° C. The solids obtained after evaporation were used to determine the solubility of Compound 1.HCl and analyzed by XRPD for any new form. Table 1 represents the solubility of Compound 1.HCl in different solvents.

Data set [4] in a line: Heating of amorphous salt at 140° C., XRPD and DSC. Format: physicochemical. The following applies: amorphous salt heated to 140° C. for 30 min (Sample D9). The protocol: FIG. 18 illustrates the post-DVS XRPD comparison with the amorphous and Pattern A (original salt). The amorphous salt was heated to 140° C. for 30 min and characterized by XRPD and DSC (Sample ID: D9). […] The DSC thermogram in FIG. 21 also confirms the conversion of amorphous to crystalline (Pattern A) after heating the amorphous sample at 140° C.

Data set [5] relates to blood coagulation components. Format: in vivo. As for the experimental part: The following parameters and endpoints were evaluated in this study: mortality, body weight, physical, clinical pathology parameters (hematology and coagulation), coagulation time, and bioanalytical parameters.
The vehicle and test article were administered via intravenous (IV) infusion once on Day 1 for 135 minutes (initiated 30 minutes prior to starting the Cardiopulmonary Bypass (CPB) and continuing for 105 minutes of CPB). Group 2 animals received a […] IV bolus dose immediately prior to the start of IV infusion. Group 3, 4, and 5 animals received a 10 mg/kg IV bolus dose prior to the start of the IV infusion; with the CPB machine primed with test article at 10 μg/mL.
Infusion of the Compound 1 was started 30 minutes prior to the animal being placed on the CPB pump. The CPB pump was primed with 0.9% saline.
Venous and arterial sheaths were flushed with the Compound 1 at a concentration of 10 μg/mL. An IV bolus dose of the test article was administered immediately prior to the start of the infusion. Infusion of Compound 1 was started 30 minutes prior to the animal being placed on the CPB pump. The CPB […] was primed with 10 μg/mL of the Compound 1 prior to initiation of the CPB pump.
An IV bolus dose of the Compound 1 was administered immediately prior to the start of the infusion. Infusion of Compound 1 was started 30 minutes prior to the animal being placed on the CPB pump.

Setting [6] is: amorphous salt (Sample C1), from 0 to 95% RH.

As to `C[C@@H](NC(=O)N1C(=O)[C@H](Cc2ccnc(N)c2)[C@H]1C(=O)O)C1CCCCC1.Cl` [Compound 1.HCl], the “crystalline pattern by XRPD after DVS” value in data set [1] (crystalline Pattern A, after DVS) is listed as “did not change”. In addition, the “moisture uptake (DVS)” value in data set [1] (crystalline Pattern A, relative humidity levels between 0-95%) is “about 4%”. In data set [2], the “solid form by XRPD of competitive slurries after 24 h” value was “did not exhibit any change in the crystalline form (Pattern A)”. For the same molecule, the “solid form by XRPD of competitive slurries at t=5 min” value in data set [2] is on record as “transformed to Pattern A”. Moreover, the solubility (commonly how much of the substance goes into solution per volume) at 48 h in data set [3] (aqueous with cosolvent or surfactant or cyclodextrin, MeOH:H2O (1:1), 15° C.) was > 100000 µg/mL; in data set [3] (aqueous with cosolvent or surfactant or cyclodextrin, MeOH:H2O (1:1), 45° C.), > 100000 µg/mL; in data set [3] (organic solvent or mixture, Acetone, 15° C.), 2200 µg/mL; in data set [3] (organic solvent or mixture, Acetone, 45° C.) it was 4800 µg/mL; in data set [3] (organic solvent or mixture, EtOAc, 15° C.) it was 200 µg/mL; in data set [3] (organic solvent or mixture, EtOAc, 45° C.), 2100 µg/mL. For the same molecule, the solubility at 48 h in data set [3] (organic solvent or mixture, EtOH:H2O (95:5), 15° C.) was > 100000 µg/mL; in data set [3] (organic solvent or mixture, EtOH:H2O (95:5), 45° C.), > 100000 µg/mL; in data set [3] (organic solvent or mixture, Heptane, 15° C.), < 1000 µg/mL; in data set [3] (organic solvent or mixture, Heptane, 45° C.) it was 2100 µg/mL; in data set [3] (organic solvent or mixture, IPA, 15° C.), 17000 µg/mL; in data set [3] (organic solvent or mixture, IPA, 45° C.), 43000 µg/mL. Further, the solubility at 48 h was > 100000 µg/mL in data set [3] (organic solvent or mixture, IPA:H2O (9:1), 15° C.); > 100000 µg/mL in data set [3] (organic solvent or mixture, IPA:H2O (9:1), 45° C.); 700 µg/mL in data set [3] (organic solvent or mixture, MeCN, 15° C.); 700 µg/mL in data set [3] (organic solvent or mixture, MeCN, 45° C.); > 100000 µg/mL in data set [3] (organic solvent or mixture, MeOH, 15° C.); > 100000 µg/mL in data set [3] (organic solvent or mixture, MeOH, 45° C.). Besides, the solubility at 48 h is 400 µg/mL in data set [3] (organic solvent or mixture, TBME, 15° C.); 4100 µg/mL in data set [3] (organic solvent or mixture, TBME, 45° C.); 1200 µg/mL in data set [3] (organic solvent or mixture, THF, 15° C.); 6700 µg/mL in data set [3] (organic solvent or mixture, THF, 45° C.); > 100000 µg/mL in data set [3] (Water, 15° C.); > 100000 µg/mL in data set [3] (Water, 45° C.).
Turning to `C[C@@H](NC(=O)N1C(=O)[C@H](Cc2ccnc(N)c2)[C@H]1C(=O)O)C1CCCCC1.Cl` [amorphous Compound 1.HCl], in data set [1] (amorphous salt (Sample C1)), the “weight loss, DVS Desorption 2” value is recorded as 3%. The “solid form by XRPD post-DVS” value in data set [1] (amorphous salt (Sample C1), post-DVS experiment) is given as “reverts back to crystalline salt (Pattern A)”. For the same molecule, in data set [1] (setting [6]), the “additional weight loss, DVS Sorption 2” value was found to be 1% and the “weight gain, DVS Sorption 1” value was 10%. The “weight loss, DVS Desorption 1” value in data set [1] (amorphous salt (Sample C1), from 50 to 0% RH) is listed as “around 3%”. In addition, the “weight loss, DVS Desorption 3” value in data set [1] (amorphous salt (Sample C1), from 95 to 50% RH) is on record as “around 1%”. Besides, the “solid form by XRPD after heating” value in data set [4] is on record as “transformation to Pattern A (crystalline salt)”.
Take `C[C@@H](NC(=O)N1C(=O)[C@H](Cc2ccnc(N)c2)[C@H]1C(=O)O)C1CCCCC1` [Compound 1, (2S,3R)-3-[(2-aminopyridin-4-yl)methyl]-1-{[(1R)-1-cyclohexylethyl]carbamoyl}-4-oxoazetidine-2-carboxylic acid]: in data set [5] (dog, in vivo), the morbidity or mortality result is listed as “not associated with any increases in morbidity or mortality” and the survival result is listed as “All animals survived to study termination”. Further, the “prevention of activation of blood coagulation in components of cardiopulmonary bypass” value in data set [5] (hound CPB model, 105-minute CPB run) is recorded as “successful in preventing the activation of blood coagulation in components of cardiopulmonary bypass”. Further, the “pressure gradient across the membrane oxygenator” value in data set [5] (hound CPB model, IV infusion at multiple doses, entire pump run) was “stayed consistent through the entire run”. The “selectivity of anticoagulant effects” value in data set [5] (hound CPB model, coagulation parameters) was “selective to inhibition of activated partial thromboplastin time (aPTT)”. In addition, the “aPTT during Compound 1 infusion and prior to CPB” value in data set [5] (hound, all animals, IV infusion 3 or 10 mg/kg/hr) is on record as “moderately to markedly prolonged”. Further, in data set [5] (hound, all groups), the “aPTT following cessation of infusion and CPB, at the conclusion of the study” value is on record as “remained moderately prolonged”.
